# Experimental data reported in patent publication US4221787A, “Esteramide prodrugs of anti-inflammatory corticosteroids” (INTERx Research Corporation, priority 1979, dated 1980).
# What was measured:
# [1] = test system: burned rat ear; experiment: Effect of selected steroid derivatives on ear burn inflammation; type: in vivo, Sprague-Dawley rats; details: 0.03 M steroid in isopropyl myristate, rat ear burned at 51.7° C. for 10 seconds, ears weighed after 16 hours, 5 rats
# Experimental: The pressure of the cylinder on the rat ear was reproduced by using only the weight of the top brass cylinder (2.5 lbs) to apply the pressure. The burned rat ear was then immediately treated on both sides with […] of vehicle (isopropyl myristate) or 0.03 M steroid in the vehicle. After 16 hours, both ears of the rat were removed along anatomical guidelines and weighed.
# The increase of weight caused by the burn was determined by subtracting the weight of the untreated left ear from the weight of the treated right ear.
# The percent inhibition of inflammation was then determined as the weight increase of burned rat ears treated only with vehicle minus the weight increase of burned rat ears treated with vehicle containing the steroid divided by the weight increase of burned rat ears treated only with vehicle times one hundred.
# [2] = test system: thymus glands; experiment: Effect of selected steroid derivatives on thymus weight (systemic effect); type: in vivo, Sprague-Dawley rats; details: 48 hours after burn and application of 0.03 M steroid in isopropyl myristate; lower weight = more pronounced systemic effect; Control 233.5 ± 11.5
# Experimental: A modification of the method of Tonelli et al, Endocrinology, 77, 625 (1965), was used. […] The rats were first anesthetized with phenobarbitol, then the right ear of each rat was burned on both side for 10 seconds between two vertically oriented brass cylinders heated with water at 51.7° C. from a constant temperature bath. The pressure of the cylinder on the rat ear was reproduced by using only the weight of the top brass cylinder (2.5 lbs) to apply the pressure. The burned rat ear was then immediately treated on both sides with […] of vehicle (isopropyl myristate) or 0.03 M steroid in the vehicle. After 16 hours, both ears of the rat were removed along anatomical guidelines and weighed.
# Effect of Selected Steroid Derivatives on Thymus Weight
# The rats used in the ear burn test described in Example 18 were revived and 48 hours after the burn and application of the steroid, they were sacrificed with carbon dioxide. Then their thymus glands were removed and weighed. The lower the weight of thymus, the more pronounced the systemic effect of the steroid.
# [3] = test system: mouse skin; details: in vivo
# Experimental: Effect of Selected Steroid Derivatives on Skin Thickness A modification of the method of Smith et al, Arch Derrmatol, 112, 1115 (1976), was used. Hairless mice were used instead of rats. The steroids were tested at 0.03 M in propyleneglycol suspension except for hydrocortisone 17-butyrate which was soluble. Each suspension (50 μl) was applied to the backs of 9 mice daily. On the twenty-ninth day of the experiment, the mice were sacrificed with carbon dioxide and the double fold skin thickness was immediately measured using an Ames micrometer accurate to 0.0001 inch at a pressure of 28 lb/cm^2. The measurement was taken after three minutes had elapsed from the time the mouse skin was placed in the micrometer.
SMILES,% Inhibition (of ear burn inflammation) [1],Thymus Weight [2],% Decrease from Control (double fold skin thickness) [3]
"CCCC(=O)O[C@]1(C(=O)COC(=O)CCC(=O)N(CC)CC)CC[C@H]2[C@@H]3CCC4=CC(=O)CC[C@]4(C)[C@H]3[C@@H](O)C[C@@]21C [4-Pregnene-11β-Hydroxy-17α-butyryloxy-21-(N,N-diethylsuccinamyloxy)-3,20-dione]",20.4%,,
C[C@]12CCC(=O)C=C1CC[C@@H]1[C@@H]2[C@@H](O)C[C@@]2(C)[C@H]1CC[C@]2(O)C(=O)CO [Hydrocortisone],3.3%,190.3 ± 29.7 mg,
CC1(C)O[C@@H]2C[C@H]3[C@@H]4CCC5=CC(=O)C=C[C@]5(C)[C@@]4(F)[C@@H](O)C[C@]3(C)[C@]2(C(=O)CO)O1 [Triamcinolone acetonide],53.8%,65.3 ± 8.1 mg,45.8%
"CCN(CC)C(=O)CCC(=O)OCC(=O)[C@@]1(O)CC[C@H]2[C@@H]3CCC4=CC(=O)CC[C@]4(C)[C@H]3[C@@H](O)C[C@@]21C [4-Pregnene-11β,17α-dihydroxy-21-(N,N-diethylsuccinamyloxy)-3,20-dione]",49.2%,,26.7%
CCCC(=O)O[C@]1(C(=O)CO)CC[C@H]2[C@@H]3CCC4=CC(=O)CC[C@]4(C)[C@H]3[C@@H](O)C[C@@]21C [Hydrocortisone 17-butyrate],28.9%,149.6 ± 11.7 mg,39.2%
"C[C@]12CCC(=O)C=C1CC[C@@H]1[C@@H]2[C@@H](O)C[C@@]2(C)[C@H]1CC[C@]2(O)C(=O)COC(=O)[C@@H]1CCC(=O)N1 [4-Pregnene-11β,17α-dihydroxy-21-(2'-oxopyrrolidin-5'-yl)carbonyloxy-3,20-dione]",50.5%,,
CC(=O)OCC(=O)[C@@]1(O)CC[C@H]2[C@@H]3CCC4=CC(=O)CC[C@]4(C)[C@H]3[C@@H](O)C[C@@]21C [Hydrocortisone 21-acetate],31.0%,177.2 ± 11.0 mg,37.5%
